PubChem BioAssay (NCI)
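Step 1: Grow cells in 96-well plates. Step 2: Expose to compound for 48 hours at 5 concentrations. Step 3: Interpolate endpoints linearly; if unreached, use highest concentration. GI50: concentration for 50% inhibition of growth. TGI: total growth inhibition.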

Tests used:
Assay in all cases: inhibition of tumour cell growth, NCI panel, 48 h
[1] = system: MCF7 breast
[2] = system: OVCAR-8 ovarian
[3] = system: UO-31 renal
[4] = system: KM12 colon
[5] = system: CCRF-CEM leukemia
[6] = system: DU-145 prostate
[7] = system: MDA-MB-231 breast
[8] = system: HOP-62 NSCLC
[9] = system: ACHN renal
[10] = system: SK-MEL-2 melanoma

## NCCOCCOCCNc1nc(Cc2ccccc2)nc(NCCCN2CCCC2=O)n1
[1]
  GI50: > 100 µM
  TGI: > 100 µM
[2]
  GI50: > 100 µM
  TGI: > 100 µM
[3]
  GI50: > 100 µM
  TGI: > 100 µM
[4]
  GI50: > 100 µM
  TGI: > 100 µM
[5]
  GI50: > 100 µM
  TGI: > 100 µM
[6]
  GI50: > 100 µM
  TGI: > 100 µM
[7]
  GI50: > 100 µM
  TGI: > 100 µM
[8]
  GI50: > 100 µM
  TGI: > 100 µM
[9]
  GI50: > 100 µM
  TGI: > 100 µM

## CCCNC1=C(C(=O)OCC)C(=O)CO1
[2]
  TGI: > 100 µM
[3]
  TGI: > 100 µM
[5]
  TGI: > 100 µM
[10]
  TGI: > 100 µM
[9]
  TGI: > 100 µM

## N#C/C(=C\c1ccc(O)c(O)c1)C(N)=S
[2]
  TGI: > 100 µM
[3]
  TGI: > 100 µM
[4]
  TGI: > 100 µM
[5]
  TGI: > 55.3 µM
[10]
  TGI: > 100 µM
[8]
  TGI: > 100 µM
[9]
  TGI: > 100 µM

## CCCCCCCCCCCC(=O)OCC1OC(n2cc(F)c(=O)[nH]c2=O)C(NC(=O)OCc2ccccc2)C(OC(=O)CCCCCCCCCCC)C1O (stereo not drawn)
[2]
  TGI: > 100 µM
[3]
  TGI: > 100 µM
[4]
  TGI: > 100 µM
[5]
  TGI: > 100 µM
[10]
  TGI: > 100 µM
[8]
  TGI: > 100 µM
[9]
  TGI: > 100 µM

## NC1C[C@H](n2cc(/C=C/Br)c(=O)[nH]c2=O)C[C@@H]1CO (stereo partly drawn)
[2]
  TGI: > 100 µM
[3]
  TGI: > 100 µM
[5]
  TGI: > 100 µM
[8]
  TGI: > 100 µM
[9]
  TGI: > 100 µM

## O=C(O)/C=C\C(=O)N1C/C(=C\c2ccccc2Cl)C(=O)/C(=C/c2ccccc2Cl)C1
[1]
  GI50: 1.09 µM
  TGI: 10.4 µM
[2]
  GI50: 3.88 µM
  TGI: 17 µM
[3]
  GI50: 1.98 µM
  TGI: 3.72 µM
[4]
  GI50: 1.6 µM
  TGI: 3.12 µM
[5]
  GI50: 1.43 µM
  TGI: 6.66 µM
[10]
  GI50: 3.08 µM
  TGI: 8.33 µM
[6]
  GI50: 2.43 µM
  TGI: 5.48 µM
[7]
  GI50: 3.52 µM
  TGI: 11.5 µM
[8]
  GI50: 3.4 µM
  TGI: 8.26 µM

## Nc1ccn(CCNCCn2cnc3nc(N)[nH]c(=O)c32)c(=O)n1
[2]
  TGI: > 100 µM
[3]
  TGI: > 100 µM
[4]
  TGI: > 100 µM
[10]
  TGI: > 100 µM
[8]
  TGI: > 100 µM
[9]
  TGI: > 100 µM

## COc1ccc(-c2nc3sc4c(c3c(=O)[nH]2)CCCCCC4)cc1
[2]
  GI50: 3.9 µM
  TGI: > 33.2 µM
[3]
  GI50: > 33.2 µM
  TGI: > 33.2 µM
[4]
  GI50: 1.18 µM
  TGI: > 33.2 µM
[5]
  GI50: > 33.2 µM
  TGI: > 33.2 µM
[10]
  GI50: 2.83 µM
  TGI: 23.5 µM
[6]
  GI50: > 33.2 µM
  TGI: > 33.2 µM
[7]
  GI50: 4.04 µM
  TGI: > 33.2 µM
[8]
  GI50: 1.87 µM
  TGI: > 33.2 µM
[9]
  GI50: 2.3 µM
  TGI: > 33.2 µM

## CCN(CC)c1ccc(C(=O)c2ccccc2C(=O)O)c(O)c1
[2]
  TGI: > 100 µM
[3]
  TGI: > 100 µM
[4]
  TGI: > 100 µM
[5]
  TGI: > 100 µM
[10]
  TGI: > 100 µM
[8]
  TGI: > 100 µM
[9]
  TGI: > 100 µM

## CCOC(=O)c1cc(NS(=O)(=O)c2ccccc2)cc(C(=O)OCC)c1
[1]
  GI50: > 100 µM
  TGI: > 100 µM
[3]
  GI50: > 100 µM
  TGI: > 100 µM
[4]
  GI50: > 100 µM
  TGI: > 100 µM
[5]
  GI50: > 100 µM
  TGI: > 100 µM
[10]
  GI50: > 100 µM
  TGI: > 100 µM
[6]
  GI50: > 100 µM
  TGI: > 100 µM
[7]
  GI50: > 100 µM
  TGI: > 100 µM
[8]
  GI50: > 100 µM
  TGI: > 100 µM
[9]
  GI50: > 100 µM
  TGI: > 100 µM

## COc1cc(OC(C)=O)cc2c(OC(C)=O)ccc(OC(C)=O)c12
[2]
  TGI: > 100 µM
[3]
  TGI: > 100 µM
[4]
  TGI: > 100 µM
[5]
  TGI: > 100 µM
[10]
  TGI: > 100 µM
[8]
  TGI: > 100 µM
[9]
  TGI: > 100 µM

## COc1ccc(/C=C(/C#N)C(N)=O)cc1OC
[1]
  TGI: > 100 µM
[2]
  TGI: > 100 µM
[4]
  TGI: > 100 µM
[5]
  TGI: > 100 µM
[10]
  TGI: > 100 µM
[6]
  TGI: > 100 µM
[7]
  TGI: > 100 µM
[8]
  TGI: > 100 µM
[9]
  TGI: > 100 µM

## COC(C(=O)[O][Ge]([CH3])([CH3])[CH3])c1ccccc1 (stereo not drawn)
[2]
  GI50: > 100 µM
  TGI: > 100 µM
[3]
  GI50: > 100 µM
  TGI: > 100 µM
[4]
  GI50: > 100 µM
  TGI: > 100 µM
[5]
  GI50: > 100 µM
  TGI: > 100 µM
[8]
  GI50: > 100 µM
  TGI: > 100 µM
[9]
  GI50: > 100 µM
  TGI: > 100 µM

## Cc1[nH]ccc2c1[nH]c1cc(=O)ccc12
[2]
  TGI: > 100 µM
[3]
  TGI: > 100 µM
[4]
  TGI: > 100 µM
[5]
  TGI: > 100 µM
[10]
  TGI: > 100 µM
[8]
  TGI: > 100 µM
[9]
  TGI: > 100 µM

## CCOc1ccc(NC(=O)C(=O)CC(=O)C2=C(C)Nc3ccccc3S2)cc1
[2]
  TGI: > 50 µM
[3]
  TGI: > 50 µM
[4]
  TGI: > 50 µM
[5]
  TGI: > 50 µM
[10]
  TGI: > 50 µM
[8]
  TGI: > 50 µM
[9]
  TGI: > 50 µM

## CC1SC2=NC3=C(c4ccccc4C3=O)C(c3ccc(F)cc3)N2C1=O (stereo not drawn)
[2]
  TGI: > 100 µM
[3]
  TGI: > 100 µM
[4]
  TGI: > 100 µM
[5]
  TGI: > 100 µM
[10]
  TGI: > 100 µM
[8]
  TGI: > 100 µM
[9]
  TGI: > 100 µM

## CCc1ccccc1NC(=O)C(=O)CC(=O)c1sc(Nc2ccccc2)nc1C
[2]
  TGI: > 100 µM
[3]
  TGI: > 100 µM
[4]
  TGI: > 100 µM
[5]
  TGI: > 100 µM
[10]
  TGI: > 100 µM
[8]
  TGI: > 100 µM
[9]
  TGI: > 100 µM

## CCCCC(CC)CN=C(N)NC(N)=NCCCCCCN=C(N)NC(N)=NCC(CC)CCCC (stereo not drawn)
[2]
  GI50: 2.08 µM
  TGI: 5.19 µM
[3]
  GI50: 3.03 µM
  TGI: 10.1 µM
[6]
  GI50: 3.26 µM
  TGI: 11.4 µM
[7]
  GI50: 1.85 µM
  TGI: 3.65 µM
[9]
  GI50: 2.85 µM
  TGI: 7.74 µM

## C=CCC[CH2][Sn]([c]1ccccc1)([c]1ccccc1)[c]1ccccc1
[2]
  GI50: 1.78 µM
  TGI: 3.28 µM
[3]
  GI50: 1.89 µM
  TGI: 3.36 µM
[4]
  GI50: 1.31 µM
  TGI: 2.58 µM
[5]
  GI50: 1.01 µM
  TGI: 4.37 µM
[10]
  GI50: 1.76 µM
  TGI: 3.2 µM
[8]
  GI50: 2.25 µM
  TGI: 3.99 µM
[9]
  GI50: 1.66 µM
  TGI: 3.07 µM

## NNC(=O)/C(=C/c1ccc(Cl)cc1Cl)NC(=O)c1ccccc1
[2]
  TGI: > 100 µM
[3]
  TGI: > 100 µM
[4]
  TGI: > 100 µM
[5]
  TGI: > 100 µM
[10]
  TGI: > 100 µM
[8]
  TGI: > 100 µM
[9]
  TGI: > 100 µM

## Cc1cc(N(CCC#N)CCC#N)ccc1N=Nc1cccc(C(=O)O)c1
[2]
  TGI: > 100 µM
[3]
  TGI: > 100 µM
[4]
  TGI: > 100 µM
[5]
  TGI: > 100 µM
[10]
  TGI: > 100 µM
[8]
  TGI: > 100 µM
[9]
  TGI: > 100 µM
